Patent US20240091244A1, “PHARMACEUTICAL COMPOSITIONS COMPRISING PICROSIDE” (SAVA HEALTHCARE LIMITED, priority 2021, published 2024)

Key:
[1] = test system: mice with cyclophosphamide induced neutropenia; test: Administration of Picroside I / Picroside II (injectable, subcutaneous) to mice with cyclophosphamide induced neutropenia; format: in vivo, Swiss albino mice; details: for changes in body weight / clinical signs of toxicity and mortality: 1 mg/mouse/day subcutaneous for 5 days; for Total leukocyte count on Day 10 as compared to Group 2 / neutrophil count on Day 10 as compared to Group 2 / % Neutrophil (day 10) / neutrophil count compared with Group 1 (Normal control): 1 mg/mouse/day subcutaneous; for Total leukocyte count on Day 10 as compared to Group 2 / neutrophil count on Day 10 as compared to Group 2 / % Neutrophil (day 10): day 5 to day 10; for % Neutrophil (day 10) / neutrophil count compared with Group 1 (Normal control): day 10; for neutrophil count compared with Group 1 (Normal control): P<0.01; for % Neutrophil (day 3): day 3 after cyclophosphamide 150 mg/kg ip, before treatment (baseline of the group); for reversal of cyclophosphamide induced neutropenia: injection
Protocol: (§1) In-house bred Swiss albino mice were housed under standard laboratory conditions, such as, air-conditioned with adequate fresh air supply (air changes 12-15 per hour), room temperature of 21.1-23.2° C. and relative humidity of 55-69%, with 12 hours light and 12 hours dark cycle were strictly maintained in the experimental room. The mice were acclimatized for a minimum period of seven days to laboratory conditions.
(§2) The selected Swiss albino mice were randomized into four groups based on body weight, each group comprising of 6 mice. Group 2 and 3, 4 animals were treated with 150 mg/kg of cyclophosphamide through intraperitoneal route on Day 0 to initiate inducing neutropenia. On Day 3, the animals of group 2, 3 and 4, reflected the cyclophosphamide induced neutropenication when compared with Group 1 (Control) mice. On day 4, mice from Groups 2, 3 and 4 were again injected with a single dose of 100 mg/kg of cyclophosphamide. Total and differential count (neutrophils, lymphocytes, and monocytes) was recorded on day 3. The neutrophil count on day 3 was compared between groups using One-way ANOVA followed by Dunnett's test or student ‘t’ test. P<0.05 was considered statistically significant.
Cyclophosphamide related neutropenia was induced in mice subjects using method according to Example 6. Injectable composition was prepared using the method according to Example 5. The Picroside I composition was administered through subcutaneous route at a dose of 1 mg/mouse/day to the animals in Group 3 for 5 days respectively starting from day 5 ending at day 10. Picroside II composition was administered through subcutaneous route at a dose of 1 mg/mouse/day to the animals in Group 4 for 5 days respectively starting from day 5 ending at day 10. On day 10, again blood was collected to count the total leucocyte count and differential count (neutrophils, lymphocytes, and monocytes) manually. The neutrophil count on day 10 was compared between groups using One-way ANOVA followed by Dunnett's test or student ‘t’ test. P<0.05 was considered statistically significant.

[2] = Stability analysis of injectable composition of Picroside I and 2.5% PEG400 by HPLC quantitative analysis; format: physicochemical; details: 1 mg Picroside I in 2.5% PEG400; for % Result (1 month): HPLC 220 nm
Protocol: The purified Picroside I prepared by the methods according to Example 1, 2, and 3 was used for the said injection composition. Injection preparation was prepared by dissolving 1 mg Picroside I in solvent, controlling pH to about 4-land then filling in ampules followed by subsequent sterilizing by conventional injection preparation method. For comparative compositions, different solvents such as methanol, 2.5% PEG400, 5% PEG400, 5% DMSO, 5% ethyl lactate, and 1.4% propylene glycol were used for Picroside I solubility.
The solutions were kept for sonication for 15 min and left the solutions stand at room temperature for 1 hour. HPLC was used for quantitative analysis.
Three compositions of 1 mg Picroside I and 2.5% PEG400 were kept for sonication for 15 min and left to stand at room temperature (RT), 2-8° C. and 40° C., 75% RH for 1 month. and injected (20 μL) into HPLC at 220 nm for quantitative analysis.

[3] = test system: mice with cyclophosphamide induced neutropenia; test: Administration of Picroside I (oral tablets) to mice with cyclophosphamide induced neutropenia; format: in vivo, Swiss albino mice; details: for Neutrophil (10^9/L) (day 10) / WBC (10^9/L) (day 10): day 5 to day 10; for Neutrophil (10^9/L) (day 3) / WBC (10^9/L) (day 3): day 3, before treatment (baseline)
Protocol: as §1, §2
Cyclophosphamide related neutropenia was induced in mice subjects using method according to Example 6. Oral tablet composition was prepared using the method according to Example 4. The Picroside I composition was administered orally at a dose of 2 mg/mouse/day (2 tablets) to the animals in Group 1 and Group 2 for 5 days respectively starting from day 5 ending at day 10. For a comparative study, oral composition was administered using distilled water and PEG. Specifically, oral tablets were administered in distilled water to mice in Group 1 and in 5% PEG to mice in Group 2. On day 10, again blood was collected to count the total leucocyte count and differential count (neutrophils, lymphocytes, and monocytes) manually. The neutrophil count on day 10 was compared between groups using One-way ANOVA followed by Dunnett's test or student ‘t’ test. P<0.05 was considered statistically significant.

[4] = test system: mice with cyclophosphamide induced neutropenia; test: Comparative administration of Picroside I and G-CSF to mice with cyclophosphamide induced neutropenia; format: in vivo, Swiss albino mice; details: for % Neutrophil (day 0): day 0, before cyclophosphamide (baseline of the group); for % Neutrophil (day 3): day 3 after cyclophosphamide, before treatment; for % Neutrophil (day 10): Picroside I 1 mg/mouse/day, G-CSF 2 μg/mouse/day
Protocol: as §1, §2
(§3) Cyclophosphamide related neutropenia was induced in mice subjects using method according to Example 6. Group 1 was marked vehicle control group, Group 2 was marked cyclophosphamide control, Group 3 was marked treated with Picroside I and Group 4 was marked treated with G-CSF treated. The Picroside I composition was administered through subcutaneous route at a dose of 1 mg/mouse/day to the animals in Group 3 for 5 days respectively starting from day 5 ending at day 10. The G-CSF composition was administered through subcutaneous route at a dose of 2 μg/mouse/day to the animals in Group 4 for 5 days respectively starting from day 5 ending at day 10. On day 10, again blood was collected to count the total leucocyte count and differential count (neutrophils, lymphocytes, and monocytes) manually. The neutrophil count on day 10 was compared between groups using One-way ANOVA followed by Dunnett's test or student ‘t’ test. P<0.05 was considered statistically significant. Additionally, hepatotoxicity was observed by investigating ALT and AST levels.

[5] = test system: cyclophosphamide induced hepatotoxicity; test: Effect in cyclophosphamide induced hepatotoxicity (AST and ALT levels); format: in vivo, Swiss albino mice; details: for ALT (IU/L) / AST (IU/L): day 5 to day 10, Picroside I 1 mg/mouse/day, G-CSF 2 μg/mouse/day, cyclophosphamide treated mice
Protocol: as §2, §3

[6] = 2 mg/mouse/day oral, in distilled water (Group 1) and in 5% PEG (Group 2)
[7] = Group 1, 2 mg/mouse/day oral (2 tablets) in distilled water
[8] = Group 1, tablets in distilled water
[9] = Group 2, 2 mg/mouse/day oral (2 tablets) in 5% PEG
[10] = Picroside I 1 mg/mouse/day vs G-CSF 2 μg/mouse/day, subcutaneous
[11] = 1 mg/mouse/day subcutaneous, p<0.001

## COc1cc(C(=O)O[C@H]2[C@@H]3C=CO[C@@H](O[C@@H]4O[C@H](CO)[C@@H](O)[C@H](O)[C@H]4O)[C@@H]3[C@@]3(CO)O[C@@H]23)ccc1O [Picroside II]
[1]
  changes in body weight: no treatment related changes in body weight
  clinical signs of toxicity and mortality: no clinical signs of toxicity and mortality
  Total leukocyte count on Day 10 as compared to Group 2: significant increase
  neutrophil count on Day 10 as compared to Group 2: significant increase
  % Neutrophil (day 10): 32.83%
  neutrophil count compared with Group 1 (Normal control): increased neutrophil count significantly
  % Neutrophil (day 3): 21.83%
  reversal of cyclophosphamide induced neutropenia: significantly reverses

## O=C(/C=C/c1ccccc1)OC[C@H]1O[C@@H](O[C@@H]2OC=C[C@H]3[C@H](O)[C@@H]4O[C@]4(CO)[C@@H]23)[C@H](O)[C@@H](O)[C@@H]1O [Picroside I]
[2]; RT, 2-8° C. and 40° C., 75% RH
  stability over a period of 1 month: excellent stability
[2]; stored at 2-8° C. for 1 month
  % Result (1 month): 96.59%
[2]; stored at 40° C., 75% RH for 1 month
  % Result (1 month): 86.89%
[2]; stored at RT for 1 month
  % Result (1 month): 102.33%
[1]
  changes in body weight: no treatment related changes in body weight
  clinical signs of toxicity and mortality: no clinical signs of toxicity and mortality
  Total leukocyte count on Day 10 as compared to Group 2: significant increase
  neutrophil count on Day 10 as compared to Group 2: significant increase
  % Neutrophil (day 10): 32.67%
  neutrophil count compared with Group 1 (Normal control): increased neutrophil count significantly
  % Neutrophil (day 3): 20.83%
  reversal of cyclophosphamide induced neutropenia: significantly reverses
[3]; 2 mg/mouse/day oral for 5 days
  changes in body weight: no treatment related changes in body weight
  clinical signs of toxicity and mortality: no clinical signs of toxicity and mortality
[3]; [6]
  Total leukocyte count on Day 10 as compared that on Day 3: significant increase
  neutrophil count on Day 10 as compared that on Day 3: significant increase
[3]; [7]
  Neutrophil (10^9/L) (day 10): 1.58 10^9/L
  WBC (10^9/L) (day 10): 9.5 10^9/L
[3]; [8]
  Neutrophil (10^9/L) (day 3): 0.38 10^9/L
  WBC (10^9/L) (day 3): 1.75 10^9/L
[3]; [9]
  Neutrophil (10^9/L) (day 10): 1.03 10^9/L
  WBC (10^9/L) (day 10): 8.9 10^9/L
[3]; Group 2, tablets in 5% PEG
  Neutrophil (10^9/L) (day 3): 0.31 10^9/L
  WBC (10^9/L) (day 3): 2.01 10^9/L
[3]; oral tablets
  reversal of cyclophosphamide induced neutropenia: significantly reverses
[4]; 1 mg/mouse/day subcutaneous, day 5 to day 10
  effect on cyclophosphamide induced decrease in % neutrophil: alleviation
[4]; [10]
  observed changes in % neutrophil relative to G-CSF treatment: comparable to that of G-CSF treatment
[4]
  % Neutrophil (day 0): 46.00%
  % Neutrophil (day 3): 6.600%
[4]; subcutaneous, day 5 to day 10
  % Neutrophil (day 10): 23.90%
[5]; [11]
  ALT levels when compared to the Group 2: significant reversal
  AST levels when compared to the Group 2: significant reversal
[5]; [10]
  decrease in AST and ALT relative to G-CSF treatment: comparable
[5]; subcutaneous
  ALT (IU/L): 37.16 IU/L
  AST (IU/L): 50.32 IU/L

B1: G-CSF: Granulocyte Colony Stimulating Factor, FDA approved drug for treating severe neutropenia; comparator (protein, UniProt P09919 31-207, looked up)
Granulocyte …: TPLGPASSLPQSFLLKCLEQVRKIQGDGAALQEKLVSECATYKLCHPEELVLLGHSLGIPWAPLSSCPSQALQLAGCLSQLHSGLFLYQGLLQALEGISPELGPTLDTLQLDVADFATTIWQQMEELGMAPALQPTQGAMPAFASAFQRRAGGVLVASHLQSFLEVSYRVLRHLAQP
[4]
  % Neutrophil (day 0): 46.10%
  % Neutrophil (day 3): 6.700%
[4]; subcutaneous, day 5 to day 10
  % Neutrophil (day 10): 28.20%
[5]; subcutaneous
  ALT (IU/L): 36.17 IU/L
  AST (IU/L): 50.54 IU/L
